Series [1] has as its system untreated prehypertensive males and females. As to the kind of experiment: 24-hour ambulatory blood pressure and heart rate (peripheral BP at the brachial artery), randomised controlled cross-over study. Format: in vivo, humans. As to conditions: for some time after ingestion. As for the experimental part: In a randomised controlled cross-over study with 42 untreated prehypertensive males and females the effect of cocoa-containing drinks either high in polyphenols or high in polyphenols and theobromine was assessed on blood pressure (BP).
The subjects consumed for 3 weeks daily (in the morning before breakfast) 200 ml acidified dairy drink as in table 1, with added to that 1) none (control drink), 2) 3.65 g cocoa powder (Acticoa, Barry-Callebaut) containing 500 mg polyphenols and 79 mg theobromine (amount in product specification Acticoa) and 3) 5 g cocoa powder containing 500 mg polyphenols and 79 mg theobromine plus added thereto 918 mg pure theobromine (Fagron, Ph. […]
Peripheral BP was measured by 24-hours ambulatory BP at the brachial artery, while central blood pressure was measured by applanation tonometry at the radial artery, using a transfer function to estimate central pulse wave forms, systolic and diastolic BP (SBP and DBP, respectively), pulse pressure (SBP-DBP) and augmentation index. […]
An automatic ambulatory BP monitor (Spacelabs 90207, Spacelabs In., Redmond, Wash., USA) was placed on the non-dominant arm in all subjects. Systolic and diastolic BP and heart rate (HR) were recorded over at least 24 h. […]
Baseline data was expressed as mean plus standard deviation for variables with a parametric distribution and median plus range for variables with a skewed distribution. […]

Series [2] has the same test system. The series can be described thus: Central blood pressure by applanation tonometry at the radial artery (pulse wave analysis), randomised controlled cross-over study. Format: in vivo, humans. How it is done:
In a randomised controlled cross-over study with 42 untreated prehypertensive males and females the effect of cocoa-containing drinks either high in polyphenols or high in polyphenols and theobromine was assessed on blood pressure (BP). The subjects consumed for 3 weeks daily (in the morning before breakfast) 200 ml acidified dairy drink as in table 1, with added to that 1) none (control drink), 2) 3.65 g cocoa powder (Acticoa, Barry-Callebaut) containing 500 mg polyphenols and 79 mg theobromine (amount in product specification Acticoa) and 3) 5 g cocoa powder containing 500 mg polyphenols and 79 mg theobromine plus added thereto 918 mg pure theobromine (Fagron, Ph. […] Peripheral BP was measured by 24-hours ambulatory BP at the brachial artery, while central blood pressure was measured by applanation tonometry at the radial artery, using a transfer function to estimate central pulse wave forms, systolic and diastolic BP (SBP and DBP, respectively), pulse pressure (SBP-DBP) and augmentation index. […] Augmentation index (AIx), defined as the ratio of augmentation to central pulse pressure, is expressed as a percentage: AIx=(ΔP/PP)×100, where P is pressure and PP is pulse pressure. […] Pulse pressure amplification (PPA) is expressed as the ratio of […]: PPA=PPP/CPP. […]

Results on one molecule are retold here after US20130052280A1, “USE OF THEBROMINE FOR LOWERING CENTRAL BLOOD PRESSURE” (priority 2010, published 2013).

Take `Cn1cnc2c1c(=O)[nH]c(=O)n2C` [theobromine, 3,7-dimethylxanthine]: in series [1], the “heart rate after ingestion of the effective amount (in words)” value is reported as “elevated” and the “peripheral BP after ingestion of the effective amount (in words)” value is reported as “elevated”. Moreover, the “reduction of central blood pressure compared to when theobromine is not ingested” value in series [2] (ingestion in an effective amount) was “at least 2 mmHg”. Further, in series [2] (single daily dose of 1000 mg theobromine, p=0.003), the “reduction of central BP” value amounted to 3.3%.
